Test results as given in patent US6528494B2 (priority 1996, dated 2003).
Structures can show the parent of a compound that is named as a salt.

Legend:
Type in all cases: cell-based
adenosine 2a receptor = adenosine 2a receptor (Homo sapiens, UniProt P29274); experiment: Agonist activity against adenosine 2a receptor (CHO cells, cAMP/SPAP reporter); conditions: CHO cells transfected with human receptor; basal cAMP via SPAP; mean of all the versions tested
Description: (§1) (1) Agonist activity against adenosine 2a, adenosine 1 and adenosine 3 receptor subtypes.
(§2) The effect of test compounds was determined by their effects on basal levels of cAMP (A2a) or on forskolin-enhanced cAMP (A1 and A3) as reflected by changes in levels of SPAP.

adenosine 1 receptor = target: T1, adenosine 1 receptor (Homo sapiens, UniProt P30542); experiment: Agonist activity against adenosine 1 receptor (CHO cells, forskolin-enhanced cAMP/SPAP reporter); conditions: CHO cells transfected with human receptor; forskolin-enhanced cAMP via SPAP; mean of all the versions tested
T1 sequence (P30542 1-326): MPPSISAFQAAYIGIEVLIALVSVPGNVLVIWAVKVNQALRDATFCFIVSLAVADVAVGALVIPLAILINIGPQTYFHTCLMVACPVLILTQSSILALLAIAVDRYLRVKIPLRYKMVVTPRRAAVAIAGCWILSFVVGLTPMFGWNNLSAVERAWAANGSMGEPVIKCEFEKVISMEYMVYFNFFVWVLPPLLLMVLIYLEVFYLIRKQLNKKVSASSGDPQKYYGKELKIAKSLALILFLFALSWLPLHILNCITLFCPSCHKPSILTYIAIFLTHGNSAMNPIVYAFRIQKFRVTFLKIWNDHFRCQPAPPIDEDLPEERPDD
Description: as §1, §2

adenosine 3 receptor = target: T2, adenosine 3 receptor (Homo sapiens, UniProt P0DMS8); experiment: Agonist activity against adenosine 3 receptor (CHO cells, forskolin-enhanced cAMP/SPAP reporter); conditions: CHO cells transfected with human receptor; forskolin-enhanced cAMP via SPAP; mean of all the versions tested
T2 sequence (P0DMS8 1-318): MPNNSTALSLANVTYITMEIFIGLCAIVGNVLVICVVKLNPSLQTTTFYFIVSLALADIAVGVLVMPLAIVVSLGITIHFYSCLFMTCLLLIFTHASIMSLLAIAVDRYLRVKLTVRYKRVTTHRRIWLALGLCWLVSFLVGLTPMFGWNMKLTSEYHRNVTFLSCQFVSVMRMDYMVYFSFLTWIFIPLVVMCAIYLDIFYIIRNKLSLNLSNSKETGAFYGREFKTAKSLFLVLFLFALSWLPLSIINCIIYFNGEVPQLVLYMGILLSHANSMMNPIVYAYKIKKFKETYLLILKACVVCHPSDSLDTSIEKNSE
Description: as §1, §2

Sequence of adenosine 2a receptor (P29274 whole entry): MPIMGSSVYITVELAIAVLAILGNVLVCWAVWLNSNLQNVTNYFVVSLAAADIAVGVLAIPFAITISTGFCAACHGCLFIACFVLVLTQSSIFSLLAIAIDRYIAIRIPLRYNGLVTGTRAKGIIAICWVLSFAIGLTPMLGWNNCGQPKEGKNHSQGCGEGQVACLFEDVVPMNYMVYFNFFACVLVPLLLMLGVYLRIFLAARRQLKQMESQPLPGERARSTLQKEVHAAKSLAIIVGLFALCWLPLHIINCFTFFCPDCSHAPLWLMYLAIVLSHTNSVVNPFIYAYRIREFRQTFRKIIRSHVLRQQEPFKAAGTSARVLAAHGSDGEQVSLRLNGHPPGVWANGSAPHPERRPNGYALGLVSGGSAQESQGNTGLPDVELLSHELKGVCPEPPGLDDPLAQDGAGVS

| SMILES | A2a EC50 as a ratio of that of NECA (adenosine 2a receptor) | A1 EC50 as a ratio of that of NECA (adenosine 1 receptor) | A3 EC50 as a ratio of that of NECA (adenosine 3 receptor) |
| --- | --- | --- | --- |
| CC(C)n1nnc([C@H]2O[C@@H](n3cnc4c(NCCC(C)(C)C)nc(NCCc5cn(C)cn5)nc43)[C@H](O)[C@@H]2O)n1.O=CO [Example 56, (2R,3R,4S,5R)-2-{6-(3,3-Dimethyl-butylamino)-2-[2-(1-methyl-1H-imidazol-4-yl)-ethylamino]-purin-9-yl}-5-(2-isopropyl-2H-tetrazol-5-yl)-tetrahydro-furan-3,4-diol Formate] | 4.90 | 570.90 | >297 |
| CC(C)n1nnc([C@H]2O[C@@H](n3cnc4c(NCCc5ccccc5)nc(NCCc5cn(C)cn5)nc43)[C@H](O)[C@@H]2O)n1.O=CO [Example 57, (2R,3S,4R,5R)-2-(2-Isopropyl-2H-tetrazol-5-yl)-5-{2-[2-(1-methyl-1H-imidazol-4-yl)-ethylamino]-6-phenethylamino-purin-9-yl}-tetrahydro-furan-3,4-diol Formate] | 2.42 | 376.10 | >362 |
| CC(C)n1nnc([C@H]2O[C@@H](n3cnc4c(NCc5ccccc5)nc(NCCc5cn(C)cn5)nc43)[C@H](O)[C@@H]2O)n1.O=CO [Example 58, (2R,3R,4S,5R)-2-{6-Benzylamino-2-[2-(1-methyl-1H-imidazol-4-yl)-ethylamino]-purin-9-yl}-5-(2-isopropyl-2H-tetrazol-5-yl)-tetrahydro-furan-3,4-diol Formate] | 6.07 | 1119.00 | >515 |
| CCC(CC)Nc1nc(NCCc2cn(C)cn2)nc2c1ncn2[C@@H]1O[C@H](c2nnn(C(C)C)n2)[C@@H](O)[C@H]1O.O=CO [Example 59, (2R,3R,4S,5R)-2-{6-(1-Ethyl-propylamino)-2-[2-(1-methyl-1H-imidazol-4-yl)-ethylamino]-purin-9-yl}-5-(2-isopropyl-2H-tetrazol-5-yl)-tetrahydro-furan-3,4-diol Formate] | 2.34 | 92.30 | >749 |
| CCn1nnc([C@H]2O[C@@H](n3cnc4c(NCCC(C)(C)C)nc(N[C@@H]5CCC[C@H]5O)nc43)[C@H](O)[C@@H]2O)n1.O=C(O)C(F)(F)F.O=C(O)C(F)(F)F [Example 60] | 4.24 | 69.10 | >385 |
| CCn1nnc(C2OC(n3cnc4c(NCc5ccccc5)nc(NC(CO)Cc5ccccc5)nc43)C(O)C2O)n1 [Example 61, (2R,3R,4S,5R)-2-[6-Benzylamino-2-(1S-hydroxymethyl-2-phenyl-ethylamino)-purin-9-yl]-5-(2-ethyl-2H-tetrazol-5-yl)-tetrahydro-furan-3,4-diol Formate] | 9.20 | 323.00 | >150 |
| CCn1nnc(C2OC(n3cnc4c(NC(CO)Cc5ccccc5)nc(NC5CCNC5)nc43)C(O)C2O)n1 [Example 62, (2R,3S,4R,5R)-2-(2-Ethyl-2H-tetrazol-5-yl)-5-[6-(1S-hydroxymethyl-2-phenyl-ethylamino)-2-(pyrrolidin-3R-ylamino)-purin-9-yl]-tetrahydro-furan-3,4-diol bis(Formate)] | 2.29 | 21.10 | >295 |
| CC(C)n1nnc([C@H]2O[C@@H](n3cnc4c(N[C@H](CO)Cc5ccccc5)nc(NCCc5ccccn5)nc43)[C@H](O)[C@@H]2O)n1.O=CO [Example 63, (2R,3R,4S,5R)-2-[6-(1S-Hydroxymethyl-2-phenyl-ethylamino)-2-(2-pyridin-2-yl-ethylamino)-purin-9-yl]-5-(2-isopropyl-2H-tetrazol-5-yl)-tetrahydro-furan-3,4-diol Formate] | 5.86 | 55.60 | >326 |
| CC(C)n1nnc([C@H]2O[C@@H](n3cnc4c(N[C@H](CO)Cc5ccccc5)nc(N[C@H]5CCNC5)nc43)[C@H](O)[C@@H]2O)n1.O=CO.O=CO [Example 64, (2R,3R,4S,5R)-2-[6-(1S-Hydroxymethyl-2-phenyl-ethylamino)-2-(pyrrolidin-3S-ylamino)-purin-9-yl]-5-(2-isopropyl-2H-tetrazol-5-yl)-tetrahydro-furan-3,4-diol bis(Formate)] | 2.54 | 21.30 | >326 |
| CCC(CC)Nc1nc(NC2CCN(Cc3ccccc3)C2)nc2c1ncn2C1OC(c2nnn(CC)n2)C(O)C1O.O=CO.O=CO [Example 65, (2R,3R,4S,5R)-2-[2-(1-Benzyl-pyrrolidin-3-ylamino)-6-(1-ethyl-propylamino)-purin-9-yl]-5-(2-ethyl-2H-tetrazol-5-yl)-tetrahydro-furan-3,4-diol bis(Formate)] | 2.46 | 61.50 | >158 |
| CCC(CC)Nc1nc(NC2CCC(N)CC2)nc2c1ncn2C1OC(c2nnn(C(C)C)n2)C(O)C1O.O=CO.O=CO [Example 67, (2R,3R,4S,5R)-2-[2-(trans-4-Amino-cyclohexylamino)-6-(1-ethyl-propylamino)-purin-9-yl]-5-(2-isopropyl-2H-tetrazol-5-yl)-tetrahydro-furan-3,4-diol bis(Formate)] | 2.96 | 73.85 | >326 |
| CCC(CC)Nc1nc(NCCN2CCCCC2)nc2c1ncn2C1OC(c2nnn(C(C)C)n2)C(O)C1O.O=CO.O=CO [Example 68, (2R,3R,4S,5R)-2-[6-(1-Ethyl-propylamino)-2-(2-piperidin-1-yl-ethylamino)-purin-9-yl]-5-(2-isopropyl-2H-tetrazol-5-yl)-tetrahydro-furan-3,4-diol bis(Formate)] | 3.50 | 56.20 | >331 |
| CCn1nnc(C2OC(n3cnc4c(NCCN5CCCCC5)nc(NC(CO)Cc5ccccc5)nc43)C(O)C2O)n1 [Example 69, (2R,3S,4R,5R)-2-(2-Ethyl-2H-tetrazol-5-yl)-5-[2-(1S-hydroxymethyl-2-phenyl-ethylamino)-6-(2-piperidin-1-yl-ethylamino)-purin-9-yl]-tetrahydro-furan-3,4-diol Formate] | 6.60 | 515.30 | >148 |
| CCC(CC)Nc1nc(NCCN2CCOCC2)nc2c1ncn2C1OC(c2nnn(C(C)C)n2)C(O)C1O.O=CO.O=CO [Example 70, (2R,3R,4S,5R)-2-[6-(1-Ethyl-propylamino)-2-(2-morpholin-4-yl-ethylamino)-purin-9-yl]-5-(2-isopropyl-2H-tetrazol-5-yl)-tetrahydro-furan-3,4-diol Diformate] | 7.24 | 30.55 | >405 |
| CCn1nnc(C2OC(n3cnc4c(NC5CCCC5)nc(NC(CO)Cc5ccccc5)nc43)C(O)C2O)n1 [Example 71, (2R,3R,4S,5R)-2-[6-Cyclopentylamino-2-(1S-hydroxymethyl-2-phenyl-ethylamino)-purin-9-yl]-5-(2-ethyl-2H-tetrazol-5-yl)-tetrahydro-furan-3,4-diol Formate] | 1.99 | 14.78 | >158 |
